Assay results from patent US20190375766A1, “PROCESS FOR PREPARING HALOGENATED BICYCLIC SYSTEMS” (Bayer CropScience Aktiengesellschaft, priority 2016, published 2019).

Experiment: log P by HPLC-MS
Assay type: physicochemical

| Structure (SMILES) | chromatographic logP |
| --- | --- |
| Cn1cnc2cc(C(F)(F)F)ncc21 [Example 1, 3-methyl-6-(trifluoromethyl)-3H-imidazo[4,5-c]pyridine] | 1.09 |
| Cn1cnc2cc(C(F)(F)F)nnc21 [Example 4, 7-methyl-3-(trifluoromethyl)-7H-imidazo[4,5-c]pyridazine] | 0.91 |
| Cn1c(I)nc2cc(C(F)(F)F)nnc21 [Example 5, 6-iodo-7-methyl-3-(trifluoromethyl)-7H-imidazo[4,5-c]pyridazine] | 1.66 |
| Cn1cnc2cc(C(F)(F)F)cnc21 [Example 6, 3-methyl-6-(trifluoromethyl)-3H-imidazo[4,5-b]pyridine] | 1.44 |
| Cn1c(I)nc2cc(C(F)(F)F)cnc21 [Example 7, 2-iodo-3-methyl-6-(trifluoromethyl)-3H-imidazo[4,5-b]pyridine] | 2.29 |

The next lines start with the values.

| chromatographic logP | Structure (SMILES) |
| --- | --- |
| 1.77 | Cn1c(I)nc2cc(C(F)(F)F)ncc21 [Example 2, 2-iodo-3-methyl-6-(trifluoromethyl)-3H-imidazo[4,5-c]pyridine] |
| 1.71 | Cn1c(Br)nc2cc(C(F)(F)F)ncc21 [Example 3, 2-bromo-3-methyl-6-(trifluoromethyl)-3H-imidazo[4,5-c]pyridine] |
